Inhibition data for 27 compounds are collected here from patent publication US20090197880A1 (Genelabs Technologies, Inc., priority 2007, published 2009).

The first experiment can be described thus: HCV replicon assay (luciferase) in ET (Huh-lucubineo-ET) cell line. It is filed as cell-based. Conditions: Hepatitis C virus; tested at 5 μM; inhibition of replication relative to no compound control; ET replicon cells, luciferase 48-72 hours. An excerpt: A cell line, ET (Huh-lucubineo-ET) was used for screening of compounds, or pharmaceutically acceptable salts or solvates, described herein for inhibition of HCV RNA dependent RNA polymerase. The ET cell line was stably transfected with RNA transcripts harboring a I389luc-ubi-neo/NS3-3′/ET; replicon with firefly luciferase-ubiquitin-neomycin phosphotransferase fusion protein and EMCV-IRES driven NS3-5B polyprotein containing the cell culture adaptive mutations (E1202G; T1280I; K1846T) (Krieger at al, 2001 and unpublished). The ET cells were grown in DMEM, supplemented with 10% fetal calf serum, 2 mM Glutamine, Penicillin (100 IU/mL)/Streptomycin (100 μg/mL), 1× nonessential amino acids, and 250 μg/mL G418 (“Geneticin”). They were all available through Life Technologies (Bethesda, Md.). The cells were plated at 0.5−1.0×10^4 cells/well in the 96 well plates and incubated for 24 hrs before adding the test compounds. […] Luciferase activity was measured 48-72 hours later by adding a lysis buffer and the substrate (Catalog number Glo-lysis buffer E2661 and Bright-Glo luciferase system E2620 Promega, Madison, Wis.). Cells should not be too confluent during the assay. Percent inhibition of replication was plotted relative to no compound control. Under the same condition, cytotoxicity of the compounds was determined using cell proliferation reagent, WST-1 (Roche, Germany). The compounds showing antiviral activities, but no significant cytotoxicities were chosen to determine the EC50 and TC50, the effective concentration and toxic concentration at which 50% of the maximum inhibition is observed. For these determinations, 6 dilutions of each compound were used. Compounds were typically diluted 3 fold to span a concentration range of 250 fold. EC50 and similarly TC50 values were calculated by fitting % inhibition at each concentration to the following equation:
% inhibition=100%/[(EC50/[I])^b+1]
where b is Hill's coefficient.
Consider `CCCOc1ccc(-c2cc(Cn3cc4nc(-c5cccc(F)c5F)nc-4cn3)on2)cc1` [Compound 105, 2-(2,3-Difluoro-phenyl)-5-[3-(4-propoxy-phenyl)-isoxazol-5-ylmethyl]-5H-imidazo[4,5-d]pyridazine], for which the inhibition at 5 µM was found to be 99.9%.
The same measure, in the same setting: the result for `Fc1cccc(-c2nc3cnn(Cc4cc(-c5ccc(C(F)(F)F)cc5C(F)(F)F)no4)cc-3n2)c1F` [Compound 103, 5-[3-(2,4-Bis-trifluoromethyl-phenyl)-isoxazol-5-ylmethyl]-2-(2,3-difluoro-phenyl)-5H-imidazo[4,5-d]pyridazine] reads 100%.

The experiment is the same for the next values; noted with them: Hepatitis C virus; tested at 10 μM; inhibition of replication relative to no compound control; ET replicon cells, luciferase 48-72 hours; read-out: % inhition at 10 μM.
With `Oc1nn(Cc2cc(-c3ccc(C(F)(F)F)cc3C(F)(F)F)no2)cc2nc(-c3cccc(F)c3F)nc1-2` [Compound 262, 6-[3-(2,4-Bis-trifluoromethyl-phenyl)-isoxazol-5-ylmethyl]-2-(2,3-difluoro-phenyl)-6H-imidazo[4,5-d]pyridazin-4-ol], the inhibition at 10 µM amounted to 96.6%.
On the same count and under the same terms, the same measure for `Fc1cccc(-c2nc3cnn(Cc4cc(-c5ccc(OCc6ccccn6)cc5)no4)cc-3n2)c1F` [Compound 172, 2-(2,3-Difluoro-phenyl)-5-{3-[4-(pyridin-2-ylmethoxy)-phenyl]-isoxazol-5-ylmethyl}-5H-imidazo[4,5-d]pyridazine]: 95.4%; for `Fc1ccccc1-c1nc2cnn(Cc3cc(-c4cccc(C(F)(F)F)c4)no3)cc-2n1` [Compound 276, 2-(2-Fluoro-phenyl)-5-[3-(3-trifluoromethyl-phenyl)-isoxazol-5-ylmethyl]-5H-imidazo[4,5-d]pyridazine]: 60%.
The same measure, in the same setting: the result for `FC(F)(F)c1ccc(-c2cc(Cn3cc4nc(-c5ccco5)nc-4cn3)on2)c(C(F)(F)F)c1` [Compound 142, 5-[3-(2,4-Bis-trifluoromethyl-phenyl)-isoxazol-5-ylmethyl]-2-furan-2-yl-5H-imidazo[4,5-d]pyridazine] reads 66.3%.
As to `Fc1ccccc1-c1nc2cnn(Cc3cc(-c4ccc(C(F)(F)F)cc4)no3)cc-2n1` [Compound 278, 2-(2-Fluoro-phenyl)-5-[3-(4-trifluoromethyl-phenyl)-isoxazol-5-ylmethyl]-5H-imidazo[4,5-d]pyridazine], the inhibition at 10 µM came to 99.7%.
Same read-out and setting: the same measure for `COc1cc(OC(F)(F)F)ccc1-c1cc(Cn2cc3nc(-c4cccc(F)c4F)nc-3cn2)on1` [Compound 297, 2-(2,3-Difluoro-phenyl)-5-[3-(2-methoxy-4-trifluoromethoxy-phenyl)-isoxazol-5-ylmethyl]-5H-imidazo[4,5-d]pyridazine]: 90.8%.
Consider `CCCOc1ccc(-c2cc(Cn3cc4nc(-c5ccc(F)cc5)nc-4cn3)on2)cc1` [Compound 145, 2-(4-Fluoro-phenyl)-5-[3-(4-propoxy-phenyl)-isoxazol-5-ylmethyl]-5H-imidazo[4,5-d]pyridazine], for which the inhibition at 10 µM amounted to 85.6%.
On the same count and under the same terms, the result for `Cc1cc(CCc2ccc(-c3cc(Cn4cc5nc(-c6cccc(F)c6F)nc-5cn4)on3)cc2)cc(C)n1` [Compound 311, 2-(2,3-Difluoro-phenyl)-5-(3-{4-[2-(2,6-dimethyl-pyridin-4-yl)-ethyl]-phenyl}-isoxazol-5-ylmethyl)-5H-imidazo[4,5-d]pyridazine] reads 96.7%.
Same read-out and setting: the result for `Fc1cccc(-c2nc3cnn(Cc4cc(-c5ccc(COc6cccnc6)cc5)no4)cc-3n2)c1F` [Compound 178, 2-(2,3-Difluoro-phenyl)-5-{3-[4-(pyridin-3-yloxymethyl)-phenyl]-isoxazol-5-ylmethyl}-5H-imidazo[4,5-d]pyridazine] reads 98.7%.
Still for that read-out and setting: the same measure for `Fc1cccc(-c2nc3ccn(Cc4cc(-c5ccc(C(F)(F)F)cc5C(F)(F)F)no4)nc-3n2)c1F` [Compound 245, 2-[3-(2,4-Bis-trifluoromethyl-phenyl)-isoxazol-5-ylmethyl]-6-(2,3-difluoro-phenyl)-2H-imidazo[4,5-c]pyridazine]: 72.8%; for `Fc1cccc(-c2nc3cnn(Cc4cc(-c5ccc(CN6CCCCC6)cc5)no4)cc-3n2)c1F` [Compound 157, 2-(2,3-Difluoro-phenyl)-5-[3-(4-piperidin-1-ylmethyl-phenyl)-isoxazol-5-ylmethyl]-5H-imidazo[4,5-d]pyridazine]: 9.99%; for `CCCOc1ccc(-c2cc(Cn3cc4nc(-c5cccc(F)c5F)nc-4cn3)on2)cc1` [Compound 105, 2-(2,3-Difluoro-phenyl)-5-[3-(4-propoxy-phenyl)-isoxazol-5-ylmethyl]-5H-imidazo[4,5-d]pyridazine]: 99.7%.
Consider `CCCOc1ccc(-c2cc(Cn3cc4nc(-c5cccc(F)c5F)nc-4cn3)on2)c(F)c1` [Compound 296, 2-(2,3-Difluoro-phenyl)-5-[3-(2-fluoro-4-propoxy-phenyl)-isoxazol-5-ylmethyl]-5H-imidazo[4,5-d]pyridazine], for which the inhibition at 10 µM is 99.5%.
As for `Fc1cccc(-c2nc3cnn(Cc4cc(-c5ccc(C(F)(F)F)cc5C(F)(F)F)no4)cc-3n2)c1F` [Compound 103, 5-[3-(2,4-Bis-trifluoromethyl-phenyl)-isoxazol-5-ylmethyl]-2-(2,3-difluoro-phenyl)-5H-imidazo[4,5-d]pyridazine], the inhibition at 10 µM is 100%.
On the same count and under the same terms, the same measure for `O=C(O)CCCOc1ccc(-c2cc(Cn3cc4nc(-c5cccc(F)c5F)nc-4cn3)on2)cc1` [Compound 274, 4-(4-{5-[2-(2,3-Difluoro-phenyl)-imidazo[4,5-d]pyridazin-5-ylmethyl]-isoxazol-3-yl}-phenoxy)-butyric Acid]: 54.9%.
As to `CCCCc1ccc(-c2cc(Cn3cc4nc(-c5cccc(F)c5F)nc-4cn3)on2)cn1` [Compound 301, 5-[3-(6-Butyl-pyridin-3-yl)-isoxazol-5-ylmethyl]-2-(2,3-difluoro-phenyl)-5H-imidazo[4,5-d]pyridazine], the inhibition at 10 µM came to 97.3%.
The same measure, in the same setting: the result for `COc1ccc(-c2noc(Cn3cc4nc(-c5cccc(F)c5F)nc-4cn3)n2)cc1` [Compound 228, 2-(2,3-Difluoro-phenyl)-5-[3-(4-methoxy-phenyl)-[1,2,4]oxadiazol-5-ylmethyl]-5H-imidazo[4,5-d]pyridazine] reads 40.8%.
With `Fc1cccc(-c2nc3cnn(Cc4cc(-c5ccc(OC(F)(F)F)cc5)on4)cc-3n2)c1F` [Compound 242, 2-(2,3-Difluoro-phenyl)-5-[5-(4-trifluoromethoxy-phenyl)-isoxazol-3-ylmethyl]-5H-imidazo[4,5-d]pyridazine], the inhibition at 10 µM worked out at 97%.
`COC(=O)CCCOc1ccc(-c2cc(Cn3cc4nc(-c5cccc(F)c5F)nc-4cn3)on2)cc1` [Compound 192, 4-(4-{5-[2-(2,3-difluoro-phenyl)-imidazo[4,5-d]pyridazin-5-ylmethyl]-isoxazol-3-yl}-phenoxy)-butyric acid methyl ester]: the inhibition at 10 µM stood at 54.1%.
Turning to `Fc1cccc(-c2nc3cnn(Cc4cc(-c5ccc(OCC(F)(F)F)cc5)no4)cc-3n2)c1F` [Compound 295, 2-(2,3-Difluoro-phenyl)-5-{3-[4-(2,2,2-trifluoro-ethoxy)-phenyl]-isoxazol-5-ylmethyl}-5H-imidazo[4,5-d]pyridazine], the inhibition at 10 µM was determined as 100%.
The same measure, in the same setting: the same measure for `Fc1cccc(-c2nc3cnn(Cc4cc(-c5ccc(OCc6ccccc6)cc5)no4)cc-3n2)c1F` [Compound 173, 5-[3-(4-Benzyloxy-phenyl)-isoxazol-5-ylmethyl]-2-(2,3-difluoro-phenyl)-5H-imidazo[4,5-d]pyridazine]: 98.7%.
On the same count and under the same terms, the same measure for `COc1ccc(-c2cc(Cn3cc4nc(-c5cccc(F)c5F)nc-4cn3)on2)c(O)c1` [Compound 166, 2-{5-[2-(2,3-Difluoro-phenyl)-imidazo[4,5-d]pyridazin-5-ylmethyl]-isoxazol-3-yl}-5-methoxy-phenol]: 70.7%; for `CCCOc1ccc(-c2cc(Cn3cc4nc(-c5ccco5)nc-4cn3)on2)cc1` [Compound 144, 2-Furan-2-yl-5-[3-(4-propoxy-phenyl)-isoxazol-5-ylmethyl]-5H-imidazo[4,5-d]pyridazine]: 92.2%.
Still for that read-out and setting: the same measure for `FCCCOc1ccc(-c2cc(Cn3cc4nc(-c5cccc(F)c5F)nc-4cn3)on2)cc1` [Compound 207, 2-(2,3-Difluoro-phenyl)-5-{3-[4-(3-fluoro-propoxy)-phenyl]-isoxazol-5-ylmethyl}-5H-imidazo[4,5-d]pyridazine]: 99.5%.
Regarding `COc1ccc(-c2cc(Cn3cc4nc(-c5cccc(F)c5F)nc-4cn3)on2)c(C(=O)O)c1` [Compound 266, 2-{5-[2-(2,3-Difluoro-phenyl)-imidazo[4,5-d]pyridazin-5-ylmethyl]-isoxazol-3-yl}-5-methoxy-benzoic Acid], the inhibition at 10 µM was 10%.
For `CCCOc1ccc(-c2ccc(-c3cc(Cn4cc5nc(-c6cccc(F)c6F)nc-5cn4)on3)cc2)cc1` [Compound 269, 2-(2,3-Difluoro-phenyl)-5-[3-(4′-propoxy-biphenyl-4-yl)-isoxazol-5-ylmethyl]-5H-imidazo[4,5-d]pyridazine], the inhibition at 10 µM was determined as 36.6%.
Same read-out and setting: the result for `FC(F)(F)c1ccc(-c2cc(Cn3cc4nc(-c5cccs5)nc-4cn3)on2)c(C(F)(F)F)c1` [Compound 143, 5-[3-(2,4-Bis-trifluoromethyl-phenyl)-isoxazol-5-ylmethyl]-2-thiophen-2-yl-5H-imidazo[4,5-d]pyridazine] reads 96.1%.
